Values of other authors as cited in patent US20250319089A1, “STABLE LYOPHILISATES COMPRISING 5,10-METHYLENE-(6R)-TETRAHYDROFOLIC ACID” (Merck Patent GMBH, priority 2022, published 2025).

Nc1nc2c(c(=O)[nH]1)N1CN(c3ccc(C(=O)N[C@@H](CCC(=O)O)C(=O)O)cc3)C[C@H]1CN2 [5,10-methylene-(6R,S)-tetrahydrofolic acid]
purity after 24 hours compared to the starting purity (24 hours following dissolution in water): 44.9%
purity after 7 hours (re-constituted lyophilizate, 7 hours): 84%
loss of purity per hour (degradation rate) (re-constituted lyophilizate, linear regression): 2.3 % purity per hour
